Key:
[1] = test system: type II collagen-induced arthritis, DBA-1 JNCrlj mice; assay: Mouse CIA (arthritis) model; type: in vivo; settings: oral, day 31 after the initial sensitization of type II collagen
Description: Evaluation was carried out using male DBA-1 JNCrlj mice (6 to 8 weeks of age). First, 150 μg/0.1 mL of type II collagen (bovine)/ACF emulsion was intradermally administered to the mouse ridge to cause primary sensitization. Twenty-one days later, 100 μg/0.1 mL of type II collagen (bovine)/AIF emulsion was similarly intradermally administered to the ridge to cause secondary sensitization. Note that, in the blank group, saline was intradermally administered to the ridge at the first sensitization and second sensitization. Next, for 10 days from the day of secondary sensitization, 0.1 to 20 mg/kg of the test compound dissolved or suspended in 0.5% w/v methylcellulose (0.5% MC) was orally administered once or twice a day.
The arthritis score of each limb was judged to be 0 to 4 by visual inspection and palpation (0: no symptoms, 1: one finger is red and swollen, 2: two or more fingers or in step is red and swollen, 3: fingers, in step, and heel are red and swollen, 4: movement of joints throughout the limb is poor), and the total of the limbs was used as the individual score, and the average score of the individual group administered with each test compound was calculated and used as the arthritis score. In addition, the foot volume (mL) of the left and right hind limbs was measured using a foot volume measuring device, and the edema rate was calculated by the following formula. Edema Rate (%)={(Left and Right Added Footpad Volume After Sensitization−Left and Right Added Footpad Volume Before Sensitization)/Left and Right Added Footpad Volume Before Sensitization}×100
The arthritis score of each test compound on day 31 after the initial sensitization of type II collagen was evaluated by the above method in accordance with the following evaluated basis; A: less than 2, B: 2 or more and less than 3, and C: 3 or more. In addition, the edema rate of each test compound on day 31 after the initial sensitization of type II collagen was evaluated in accordance with the following evaluated basis; A: less than 10%, B: 10% or more and less than 20%, and C: 20% or more. As a result of using apremilast as the test compound, the arthritis score and the edema rate were both evaluated as B. On the other hand, as a result of using the compound obtained in Example 248 as the test compound, the arthritis score and the edema rate were both evaluated as A.

IL-23 = assay: Cytokine suppression using human peripheral blood mononuclear cells: IL-23; type: cell-based; settings: human PBMC, lipopolysaccharide 1 ng/mL; read-out: IL-23 Inhibitory Activity, Human PBMC (Test Example 4)
Description: First, peripheral blood mononuclear cells (PBMC) were separated from whole blood by specific gravity centrifugation. Then, the isolated peripheral blood mononuclear cells were added to RPMI-1640 medium (containing 10% fetal bovine serum, penicillin, streptomycin, L-glutamine, and 2-mercaptoethanol), and cultured in a 96-well plate at 37° C. under 5% CO2 for 0 to 1 hour. The test compound dissolved in dimethyl sulfoxide was added to each well, followed by further culture at 37° C. under 5% CO2 for 1 hour. A medium containing only dimethyl sulfoxide instead of the test compound was added to the control well. […]
The measurement results obtained by measuring the TNFα inhibitory activity and IL-5 inhibitory activity (50% inhibitory concentration) of the test compounds by the above method were evaluated in accordance with the following evaluated basis; A: less than 10 nM, B: 10 nM or more and less than 100 nM, and C: 100 nM or more. In addition, the measurement results obtained by measuring the IL-17A inhibitory activity, IL-23 inhibitory activity, IL-4 inhibitory activity, and IL-13 inhibitory activity (50% inhibitory concentration) of the test compounds were evaluated in accordance with the following evaluated basis; A: less than 500 nM, B: 500 nM or more and less than 5000 nM, and C: 5000 nM or more.

[2] = test system: DSS-induced colitis, C57BL/6J mice; assay: DSS-induced mouse colitis model; type: in vivo; settings: oral once a day, DSS in drinking water
Description: Evaluation was carried out using male C57BL/6J mice (7 weeks of age). The mice were allowed to freely drink dextran sodium sulfate (DSS) dissolved in water for 5 days, and then allowed to freely drink water for 4 to 5 days. The test compound was dissolved or suspended in 0.5% w/v methylcellulose (0.5% MC) and orally administered once a day from the first day. The blank was a non-inflammation-induced group orally administered with 0.5% MC instead of the test compound and allowed to freely drink water instead of DSS, and the inflammation-induced control was a group orally administered with 0.5% MC instead of the test compound. The colitis inhibitory effect was evaluated by the disease activity index (DAI) score.

[3] = test system: bleomycin-induced pulmonary fibrosis, C57BL/6J mice; assay: Mouse bleomycin model; type: in vivo; settings: oral once a day for 14 days, day 21 after BLM administration, compared with nintedanib
Description: Evaluation was carried out using female C57BL/6J mice (7 weeks of age). Bleomycin (BLM) at a concentration of 2 mg/kg was administered oropharyngeally under anesthesia to induce pulmonary fibrosis. Six days after BLM administration, the group was divided into experimental groups so as to achieve a uniform weight loss rate from the BLM administration day. The test compound dissolved or suspended in 0.5% w/v methylcellulose (0.5% MC) was orally administered (10 μL/g) at a concentration of 10 to 100 mg/kg once a day for 14 days from day 7 after the administration of BLM. On day 21 after BLM administration, blood was collected under anesthesia, and the lungs were fixed with a 10% neutral buffered formalin solution and treated for histological examination. To evaluate the degree of fibrosis, the concentration of serum surfactant protein D (SP-D) was measured by the ELISA method.

Row | SMILES | arthritis score [1] | edema rate [1] | IC50 (IL-23) [nM] | disease activity index (DAI) score [2] | pulmonary fibrosis score [3] | serum SP-D concentration [3]
1 | CC(C)(O)C(F)(F)Oc1ccc(-c2nccs2)c2oc(N3CC4CC(C3)N4)nc12 [Example 248, 1-((2-(3,6-Diazabicyclo[3.1.1]heptan-3-yl)-7-(thiazol-2-yl)benzo[d]oxazol-4-yl)oxy)-1,1-difluoro-2-methylpropan-2-ol] | A (A: less than 2) | A (A: less than 10%) | < 500 | suppressed the DAI score at a lower concentration than that of apremilast | equal to or lower than those of nintedanib | equal to or lower than those of nintedanib
2 | CCOc1cc([C@@H](CS(C)(=O)=O)N2C(=O)c3cccc(NC(C)=O)c3C2=O)ccc1OC [apremilast, reference compound] | B (B: 2 or more and less than 3) | B (B: 10% or more and less than 20%) | ≥ 5000 |  |  | 
